Experimental data: PubChem BioAssay AID220 (DTP/NCI, 2004)
“And” between values parts separate entries of the source, which are not always exact repeats. Equal entries are not always repeated. Inconclusive results are not listed.

Test system: CD8F1 mice, subcutaneous mammary adenocarcinoma, T/C%
Assay: NCI In Vivo Anticancer Drug Screen. Data for tumor model Mammary Adenocarcinoma CD8F1 (subcutaneous) in CD8F1
Conditions: higher = larger tumour
Procedure, shortened: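 Antitumor activity is assessed in transplantable-tumor mice by comparing the treated group with a vehicle-treated control group. Survival or tumor size serves as the measure, reported as T divided by C.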

[1] = endpoint: median tumor weight (est.), dose: 12.5 mg/kg/injection, schedule: Q07DX005 (ip), vehicle: Klucel (hydroxypropylcellulose) (HPC)
[2] = endpoint: median tumor weight (est.), dose: 25.0 mg/kg/injection, schedule: Q07DX005 (ip), vehicle: Klucel (hydroxypropylcellulose) (HPC)
[3] = endpoint: median tumor weight (est.), dose: 25.0 mg/kg/injection, schedule: Q07DX005 (ip), vehicle: saline with Tween-80
[4] = endpoint: median tumor weight (est.), dose: 50.0 mg/kg/injection, schedule: Q07DX005 (ip), vehicle: saline with Tween-80
[5] = endpoint: median tumor weight (est.), dose: 100.0 mg/kg/injection, schedule: Q07DX005 (ip), vehicle: saline with Tween-80
[6] = endpoint: median tumor weight (est.), dose: 200.0 mg/kg/injection, schedule: Q07DX005 (ip), vehicle: saline with Tween-80
[7] = endpoint: median tumor weight change, dose: 125.0 mg/kg/injection, schedule: Q01DX001 (ip), vehicle: saline
[8] = endpoint: median tumor weight change, dose: 250.0 mg/kg/injection, schedule: Q01DX001 (ip), vehicle: saline
[9] = endpoint: median tumor weight (est.), dose: 50.0 mg/kg/injection, schedule: Q07DX005 (ip), vehicle: Klucel (hydroxypropylcellulose) (HPC)
[10] = endpoint: median tumor weight (est.), dose: 100.0 mg/kg/injection, schedule: Q07DX005 (ip), vehicle: Klucel (hydroxypropylcellulose) (HPC)

`N=C(N)CCCCCCCCC(=N)N` was tested, and the T/C (endpoint: median tumor weight (est.), dose: 3.12 mg/kg/injection, schedule: Q07DX005 (ip), vehicle: Klucel (hydroxypropylcellulose) (HPC)) was 67 % of control, the T/C (endpoint: median tumor weight (est.), dose: 3.12 mg/kg/injection, schedule: Q07DX005 (ip), vehicle: saline) was 86 % of control and the T/C (endpoint: median tumor weight (est.), dose: 6.25 mg/kg/injection, schedule: Q07DX005 (ip), vehicle: Klucel (hydroxypropylcellulose) (HPC)) was 123 % of control. For the same compound, the T/C (endpoint: median tumor weight (est.), dose: 6.25 mg/kg/injection, schedule: Q07DX005 (ip), vehicle: saline) was 78 % of control, the T/C [1] was 34 % of control and the T/C (endpoint: median tumor weight (est.), dose: 12.5 mg/kg/injection, schedule: Q07DX005 (ip), vehicle: saline) was 76 % of control. The T/C [2] was 31 % of control, the T/C (endpoint: median tumor weight (est.), dose: 25.0 mg/kg/injection, schedule: Q07DX005 (ip), vehicle: saline) was 28 % of control and the T/C (endpoint: median tumor weight change, dose: 8.0 mg/kg/injection, schedule: Q01DX001 (ip), vehicle: saline) was 61 % of control. For the same compound, the T/C (endpoint: median tumor weight change, dose: 15.63 mg/kg/injection, schedule: Q01DX001 (ip), vehicle: saline) was 77 % of control, the T/C (endpoint: median tumor weight change, dose: 16.0 mg/kg/injection, schedule: Q01DX001 (ip), vehicle: saline) was 186 % of control and the T/C (endpoint: median tumor weight change, dose: 31.25 mg/kg/injection, schedule: Q01DX001 (ip), vehicle: saline) was 76 % of control. For the same compound, the T/C (endpoint: median tumor weight change, dose: 32.0 mg/kg/injection, schedule: Q01DX001 (ip), vehicle: saline) was 48 % of control.

In the case of `O=S(=O)(O)O`, the T/C (endpoint: median tumor weight change, dose: 62.5 mg/kg/injection, schedule: Q01DX001 (ip), vehicle: Klucel (hydroxypropylcellulose) (HPC)) is reported as 101 % of control.

`CC(=O)Oc1ccc[nH]c1=O` was tested, and the T/C [3] was 68 % of control, the T/C [4] was 88 % of control and the T/C [5] was 93 % of control. The T/C [6] was 102 % of control, the T/C (endpoint: median tumor weight (est.), dose: 400.0 mg/kg/injection, schedule: Q07DX005 (ip), vehicle: saline with Tween-80) was 118 % of control and the T/C (endpoint: median tumor weight (est.), dose: 800.0 mg/kg/injection, schedule: Q07DX005 (ip), vehicle: saline with Tween-80) was 54 % of control.

In the case of `Nc1ncn(C2OC(CO)C(O)C2O)c(=O)n1` (stereo not given), the T/C (endpoint: mean tumor weight (est.), dose: 2.0 mg/kg/injection, schedule: Q07DX003 (ip), vehicle: other) is reported as 58 % of control, the T/C (endpoint: mean tumor weight (est.), dose: 8.0 mg/kg/injection, schedule: Q07DX003 (ip), vehicle: other) is reported as 32 % of control and the T/C (endpoint: median tumor weight (est.), dose: 1.0 mg/kg/injection, schedule: Q07DX005 (ip), vehicle: saline) is reported as 63 % of control. For the same compound, the T/C (endpoint: median tumor weight (est.), dose: 2.0 mg/kg/injection, schedule: Q07DX005 (ip), vehicle: saline) was 81 % of control, the T/C (endpoint: median tumor weight (est.), dose: 4.0 mg/kg/injection, schedule: Q07DX005 (ip), vehicle: saline) was 22 % of control and the T/C (endpoint: median tumor weight (est.), dose: 8.0 mg/kg/injection, schedule: Q07DX005 (ip), vehicle: saline) was 20 % of control. The T/C (endpoint: median tumor weight (est.), dose: 8.0 mg/kg/injection, schedule: Q07DX005 (ip), vehicle: suspension in saline) was 22 % of control, the T/C (endpoint: median tumor weight (est.), dose: 16.0 mg/kg/injection, schedule: Q07DX005 (ip), vehicle: saline) was 3 % of control and the T/C (endpoint: median tumor weight (est.), dose: 16.0 mg/kg/injection, schedule: Q07DX005 (ip), vehicle: suspension in saline) was 2 % of control. The T/C (endpoint: median tumor weight change, dose: 3.75 mg/kg/injection, schedule: Q01DX001 (ip), vehicle: saline) was 89 % of control, the T/C (endpoint: median tumor weight change, dose: 7.5 mg/kg/injection, schedule: Q01DX001 (ip), vehicle: saline) was 45 % of control and the T/C (endpoint: median tumor weight change, dose: 15.0 mg/kg/injection, schedule: Q01DX001 (ip), vehicle: saline) was 38 % of control. The T/C (endpoint: median tumor weight change, dose: 30.0 mg/kg/injection, schedule: Q01DX001 (ip), vehicle: saline) was 36 % of control, the T/C (endpoint: median tumor weight change, dose: 62.5 mg/kg/injection, schedule: Q01DX001 (ip), vehicle: saline) was 123 % of control and the T/C [7] was 103 % of control. For the same compound, the T/C (endpoint: median tumor weight change, dose: 135.0 mg/kg/injection, schedule: Q01DX001 (ip), vehicle: saline) was 44 % of control, the T/C [8] was 86 % of control and the T/C (endpoint: median tumor weight change, dose: 500.0 mg/kg/injection, schedule: Q01DX001 (ip), vehicle: saline) was 106 % of control. The T/C (endpoint: median tumor weight change, dose: 600.0 mg/kg/injection, schedule: Q01DX001 (ip), vehicle: suspension in saline) was 17 % of control, the T/C (endpoint: median tumor weight change, dose: 1000.0 mg/kg/injection, schedule: Q01DX001 (ip), vehicle: saline) was 103 % of control and the T/C (endpoint: median tumor weight change, dose: 1350.0 mg/kg/injection, schedule: Q01DX001 (ip), vehicle: suspension in saline) was -11 % of control. The T/C (endpoint: median tumor weight change, dose: 1800.0 mg/kg/injection, schedule: Q01DX001 (ip), vehicle: suspension in saline) was 60 % of control, the T/C (endpoint: median tumor weight change, dose: 2025.0 mg/kg/injection, schedule: Q01DX001 (ip), vehicle: suspension in saline) was 16 % of control and the T/C (endpoint: median tumor weight change, dose: 3600.0 mg/kg/injection, schedule: Q01DX001 (ip), vehicle: suspension in saline) was 43 % of control.

`Cc1c(N)nc(C(CC(N)=O)NCC(N)C(N)=O)nc1C(=O)NC(C(=O)NC(C)C(O)C(C)C(=O)NC(C(=O)NCCc1nc(-c2nc(C(=O)NCCCNC(C)c3ccccc3)cs2)cs1)C(C)O)C(OC1OC(CO)C(O)C(O)C1OC1OC(CO)C(O)C(OC(N)=O)C1O)c1cnc[nH]1` (stereo not given) was tested, and the T/C (endpoint: median tumor weight (est.), dose: 0.5 mg/kg/injection, schedule: Q07DX005 (ip), vehicle: water) was 122 % of control, the T/C (endpoint: median tumor weight (est.), dose: 1.0 mg/kg/injection, schedule: Q07DX005 (ip), vehicle: water) was 123 % of control and the T/C (endpoint: median tumor weight (est.), dose: 2.0 mg/kg/injection, schedule: Q07DX005 (ip), vehicle: water) was 89 % of control. The T/C (endpoint: median tumor weight (est.), dose: 4.0 mg/kg/injection, schedule: Q07DX005 (ip), vehicle: water) was 29 % of control, the T/C (endpoint: median tumor weight (est.), dose: 8.0 mg/kg/injection, schedule: Q07DX005 (ip), vehicle: water) was 78 % of control and the T/C (endpoint: median tumor weight (est.), dose: 16.0 mg/kg/injection, schedule: Q07DX005 (ip), vehicle: water) was 21 % of control.

For `CC(C)[C@](O)(C(=O)OCC1=CCN2CC[C@@H](O)[C@@H]12)[C@H](C)O`, the T/C (endpoint: median tumor weight change, dose: 125.0 mg/kg/injection, schedule: Q01DX001 (ip), vehicle: water) was 78 % of control and the T/C (endpoint: median tumor weight change, dose: 250.0 mg/kg/injection, schedule: Q01DX001 (ip), vehicle: water) was 179 % of control.

In the case of `C[N+](C)(C)c1cc2c(nn1)Nc1ccccc1S2`, the T/C [1] is reported as 86 % of control, the T/C [2] is reported as 106 % of control and the T/C [9] is reported as 107 % of control. For the same compound, the T/C [10] was 116 % of control.

`CCC1OCC(C(Cl)CCl)O1` (stereo not given) was tested, and the T/C [2] was 93 % of control, the T/C [9] was 109 % of control and the T/C [10] was 74 % of control.

In the case of `c1ccc2c(c1)-c1ccccc1C1NC21` (stereo not given), the T/C (endpoint: median tumor weight change, dose: 62.0 mg/kg/injection, schedule: Q01DX001 (ip), vehicle: saline with Tween-80) is reported as 58 % of control.

In the case of `Oc1cc2ccccc2c(-c2c(O)c(O)cc3ccccc23)c1O`, the T/C [3] is reported as 67 % of control, the T/C [5] is reported as 55 % of control and the T/C [6] is reported as 109 % of control.

In the case of `Cc1nc(N)nc(N)c1-c1ccc(Cl)c(Cl)c1`, the T/C (endpoint: mean tumor weight (est.), dose: 10.0 mg/kg/injection, schedule: Q07DX003 (ip), vehicle: saline with Tween-80) is reported as 120 % of control, the T/C (endpoint: median tumor weight change, dose: 12.5 mg/kg/injection, schedule: Q01DX001 (ip), vehicle: saline with Tween-80) is reported as 20 % of control and the T/C (endpoint: median tumor weight change, dose: 12.5 mg/kg/injection, schedule: Q01DX001 (ip), vehicle: suspension in saline) is reported as 79 % of control. The T/C (endpoint: median tumor weight change, dose: 25.0 mg/kg/injection, schedule: Q01DX001 (ip), vehicle: saline with Tween-80) was 50 % of control, the T/C (endpoint: median tumor weight change, dose: 25.0 mg/kg/injection, schedule: Q01DX001 (ip), vehicle: suspension in saline) was 38 % of control and the T/C (endpoint: median tumor weight change, dose: 50.0 mg/kg/injection, schedule: Q01DX001 (ip), vehicle: saline with Tween-80) was 8 % of control. For the same compound, the T/C (endpoint: median tumor weight change, dose: 50.0 mg/kg/injection, schedule: Q01DX001 (ip), vehicle: suspension in saline) was 12 % of control.

In the case of `COc1ccc2nc3cc(Cl)ccc3c(NCCNCCNCCNc3c4ccc(Cl)cc4nc4ccc(OC)cc34)c2c1`, the T/C (endpoint: median tumor weight (est.), dose: 12.5 mg/kg/injection, schedule: Q07DX005 (ip), vehicle: saline with Tween-80) is reported as 86 % of control and 108 % of control, the T/C [3] is reported as 68 % of control and the T/C [4] is reported as 88 % of control.

`CONc1ccn(C2OC(CO)C(O)C2O)c(=O)n1` (stereo not given) was tested, and the T/C [7] was 87 % of control and the T/C [8] was 103 % of control.

With `CC1CN1C(=O)NCCCCCCNC(=O)N1CC1C` (stereo not given) the T/C (endpoint: median tumor weight (est.), dose: 5.0 mg/kg/injection, schedule: Q07DX005 (ip), vehicle: Klucel (hydroxypropylcellulose) (HPC)) was 75 % of control and 86 % of control, the T/C (endpoint: median tumor weight (est.), dose: 10.0 mg/kg/injection, schedule: Q07DX005 (ip), vehicle: Klucel (hydroxypropylcellulose) (HPC)) was 40 % of control and 55 % of control and the T/C (endpoint: median tumor weight (est.), dose: 20.0 mg/kg/injection, schedule: Q07DX005 (ip), vehicle: Klucel (hydroxypropylcellulose) (HPC)) was 6 % of control and 19 % of control.

For `O=NN(CCCl)C(=O)Oc1ccc(OC(=O)N(CCCl)N=O)cc1`, the T/C (endpoint: median tumor weight change, dose: 25.0 mg/kg/injection, schedule: Q01DX001 (ip), vehicle: Klucel (hydroxypropylcellulose) (HPC)) was 107 % of control and the T/C (endpoint: median tumor weight change, dose: 50.0 mg/kg/injection, schedule: Q01DX001 (ip), vehicle: Klucel (hydroxypropylcellulose) (HPC)) was 75 % of control.
